Assay results from patent publication US20240409536A1, “COMPOUNDS AND METHODS FOR MODULATING SPLICING” (REMIX THERAPEUTICS INC., priority 2021, published 2024).
Where a name gives a salt, the structure may show the parent alone.

Key:
HTT mRNA = test: Splicing RT-qPCR assay, HTT canonical (CJ) and alternative (AJ) junction mRNA; assay type: cell-based; details: Homo sapiens, A673 or K562 cells, 24 hours; for IC50: decrease in canonical junction mRNA; for AC50: increase in alternative junction mRNA
Summary of the method: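 RT-qPCR read-out: CJ and AJ junction isoforms quantified from cell lysates, normalized to housekeeping GAPDH/GUSB (K562) or PPIA (A673). Cells had 24 h compound exposure, 11-point 3-fold series from 10 uM final, ≤0.25% DMSO.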

HiBiT-tagged MYB protein = test: HiBiT protein abundance assay, MYB (K562 HiBiT knock-in cells); assay type: cell-based, human; details: 24 hours
Summary of the method: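 Luminescent readout of HiBiT-tagged endogenous protein after lysis, following 24 h compound exposure of knock-in K562 lines at 37 °C. Ten 3-fold concentrations from 10 μM final, DMSO ≤0.25%. Four-parameter logistic fit of normalized response gives concentration halving abundance (IC50).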

Row | SMILES | IC50 (HTT mRNA) | AC50 (HTT mRNA) | IC50 (HiBiT-tagged MYB protein)
1 | CN[C@@H]1CCN(c2ccc(C(=O)Nc3cc(F)c4nc(C)cn4c3)c3nccnc23)C1 (single isomer, unassigned) [Compound 193, N-{8-fluoro-2-methylimidazo[1,2-a]pyridin-6-yl}-8-[3-(methylamino)pyrrolidin-1-yl]quinoxaline-5-carboxamide] | > 10000 nM | > 10000 nM | < 100 nM
2 | CN[C@H]1CCN(c2ccc(C(=O)Nc3cc(F)c4nc(C)cn4c3)c3nccnc23)C1 (single isomer, unassigned) [Compound 194, N-{8-fluoro-2-methylimidazo[1,2-a]pyridin-6-yl}-8-[3-(methylamino)pyrrolidin-1-yl]quinoxaline-5-carboxamide] | 1000 to 10000 nM | 1000 to 10000 nM | < 100 nM
3 | Cc1cn2nc(NC(=O)c3ccc(N4CCNCC4)c4ccnnc34)cc(C)c2n1 [Compound 100] | 100 to 1000 nM | 100 to 1000 nM | 100 to 1000 nM
4 | Cc1cn2cc(NC(=O)c3ccc(N4CCNC5(CC5)C4)c4ccnnc34)cc(F)c2n1 [Compound 105] | 1000 to 10000 nM | 1000 to 10000 nM | 100 to 1000 nM
5 | Cc1cn2cc(NC(=O)c3ccc(N4C[C@H]5CC[C@@H](C4)N5)c4ccnnc34)cc(F)c2n1 [Compound 108] | 1000 to 10000 nM | 1000 to 10000 nM | 100 to 1000 nM
6 | Cc1cn2nc(NC(=O)c3ccc(N4CCNCC4)c4ccnnc34)cc2c(C)n1 [Compound 123] | 1000 to 10000 nM | 1000 to 10000 nM | 1000 to 10000 nM
7 | Cc1cn2cc(NC(=O)c3ccc(N4CCNCC4)c4ccnnc34)cc(C)c2n1 [Compound 125] | 1000 to 10000 nM | 1000 to 10000 nM | 100 to 1000 nM
8 | O=C(Nc1cn[nH]c1)c1ccc(N2CCNCC2)c2ccnnc12 [Compound 126] | > 10000 nM | > 10000 nM | > 10000 nM
9 | Cc1cn2cc(NC(=O)c3ccc(N4CCN(C)CC4)c4ccnnc34)cc(F)c2n1 [Compound 127] | 1000 to 10000 nM | 1000 to 10000 nM | 100 to 1000 nM
10 | Cc1cn2cc(NC(=O)c3ccc(N4CCNC(C)C4)c4ccnnc34)cc(F)c2n1 (stereo not drawn) [Compound 128] | 100 to 1000 nM | 100 to 1000 nM | < 100 nM
11 | CCC1CN(c2ccc(C(=O)Nc3cc(F)c4nc(C)cn4c3)c3nnccc23)CCN1 (stereo not drawn) [Compound 130] | 1000 to 10000 nM | 1000 to 10000 nM | < 100 nM
12 | Cc1cn2cc(NC(=O)c3ccc(N4CC5(CNC5)C4)c4ccnnc34)cc(F)c2n1 [Compound 131] | 1000 to 10000 nM | 1000 to 10000 nM | < 100 nM
13 | Cc1cn2cc(NC(=O)c3ccc(N4CCC(N5CCCC5)C4)c4ccnnc34)cc(F)c2n1 (stereo not drawn) [Compound 133] | 1000 to 10000 nM | 1000 to 10000 nM | 100 to 1000 nM
14 | Cc1cn2cc(NC(=O)c3ccc(N4CCC(N(C)C)C4)c4ccnnc34)cc(F)c2n1 (stereo not drawn) [Compound 134] | 1000 to 10000 nM | 1000 to 10000 nM | < 100 nM
15 | Cc1cn2cc(NC(=O)c3ccc(N4CCC(N(C)C)CC4)c4ccnnc34)cc(F)c2n1 [Compound 137] | 100 to 1000 nM | 100 to 1000 nM | < 100 nM
16 | Cc1cn2cc(NC(=O)c3ccc(N4CCC(NC(C)(C)C)CC4)c4ccnnc34)cc(F)c2n1 [Compound 138] | 1000 to 10000 nM | 1000 to 10000 nM | 100 to 1000 nM
17 | Cc1cn2cc(NC(=O)c3ccc(C4CCN(C)CC4)c4ccnnc34)cc(F)c2n1 [Compound 140] | 1000 to 10000 nM | 1000 to 10000 nM | < 100 nM
18 | CCN1CCC(c2ccc(C(=O)Nc3cc(F)c4nc(C)cn4c3)c3nnccc23)CC1 [Compound 141] | 1000 to 10000 nM | 1000 to 10000 nM | < 100 nM

Row | SMILES | IC50 (HTT mRNA) | AC50 (HTT mRNA) | IC50 (HiBiT-tagged MYB protein)
19 | Cc1cn2cc(NC(=O)c3ccc(N4CCN[C@H](C)C4)c4ccnnc34)cc(F)c2n1 [Compound 146] | 100 to 1000 nM | 100 to 1000 nM | < 100 nM
20 | Cc1cn2cc(NC(=O)c3ccc(N4CCN(C)[C@H](C)C4)c4ccnnc34)cc(F)c2n1 [Compound 149] | 1000 to 10000 nM | 1000 to 10000 nM | < 100 nM
21 | Cc1cn2cc(NC(=O)c3ccc(N4CCN(C)[C@@H](C)C4)c4ccnnc34)cc(F)c2n1 [Compound 150] | 1000 to 10000 nM | 1000 to 10000 nM | 100 to 1000 nM
22 | CC[C@@H]1CN(c2ccc(C(=O)Nc3cc(F)c4nc(C)cn4c3)c3nnccc23)CCN1 [Compound 151] | 1000 to 10000 nM | 1000 to 10000 nM | < 100 nM
23 | CC[C@H]1CN(c2ccc(C(=O)Nc3cc(F)c4nc(C)cn4c3)c3nnccc23)CCN1 [Compound 152] | 1000 to 10000 nM | 1000 to 10000 nM | < 100 nM
24 | Cc1cn2cc(NC(=O)c3ccc(N4CCN5CCC[C@@H]5C4)c4ccnnc34)cc(F)c2n1 [Compound 153] | 100 to 1000 nM | 100 to 1000 nM | < 100 nM
25 | Cc1cn2cc(NC(=O)c3ccc(N4CCN5CCC[C@H]5C4)c4ccnnc34)cc(F)c2n1 [Compound 154] | 1000 to 10000 nM | 1000 to 10000 nM | < 100 nM
26 | Cc1cn2cc(NC(=O)c3ccc(N4C[C@H]5C[C@@H]4C5N(C)C)c4ccnnc34)cc(F)c2n1 (stereo partly drawn) [Compound 155] | > 10000 nM | > 10000 nM | > 10000 nM
27 | Cc1cn2cc(NC(=O)c3ccc(N(C)[C@@H]4C[C@H]5CC[C@@H](C4)N5)c4ccnnc34)cc(F)c2n1 [Compound 156] | > 10000 nM | > 10000 nM | 1000 to 10000 nM
28 | Cc1cc2c(N3CCNCC3)ccc(C(=O)Nc3cc(F)c4nc(C)cn4c3)c2nn1 [Compound 159] | 100 to 1000 nM | 100 to 1000 nM | < 100 nM
29 | Cc1cn2cc(NC(=O)c3ccc(N4C[C@@H](C)N[C@@H](C)C4)c4ccnnc34)cc(F)c2n1 [Compound 161, 5-(3,5-dimethylpiperazin-1-yl)-N-{8-fluoro-2-methylimidazo[1,2-a]pyridin-6-yl}cinnoline-8-carboxamide 2,2,2-trifluoroacetate] | 1000 to 10000 nM | 1000 to 10000 nM | < 100 nM
30 | Cc1ccc2c(N3CCNCC3)ccc(C(=O)Nc3cc(F)c4nc(C)cn4c3)c2n1 [Compound 162, N-{8-fluoro-2-methylimidazo[1,2-a]pyridin-6-yl}-2-methyl-5-(piperazin-1-yl)quinoline-8-carboxam-ide, trifluoroacetic acid] | 1000 to 10000 nM | 1000 to 10000 nM | < 100 nM
31 | CC(=O)c1cc(NC(=O)c2ccc(N3CCNCC3)c3ccnnc23)cn2cc(C)nc12 [Compound 163, N-{8-acetyl-2-methylimidazo[1,2-a]pyridin-6-yl}-5-(piperazin-1-yl)cinnoline-8-carboxamide] | > 10000 nM | > 10000 nM | 1000 to 10000 nM
32 | Cc1cn2cc(NC(=O)c3ccc(N4CCNCC4)c4ccnnc34)nc(C)c2n1 [Compound 164, N-{2,8-dimethylimidazo[1,2-a]pyrazin-6-yl}-5-(piperazin-1-yl)cinnoline-8-carboxamide 2,2,2-trifluoroacetate] | > 10000 nM | > 10000 nM | 100 to 1000 nM
33 | Cc1cn2cc(NC(=O)c3ccc(N4CCNCC4)c4cccnc34)cc(F)c2n1 [Compound 165, N-{8-fluoro-2-methylimidazo[1,2-a]pyridin-6-yl}-5-(piperazin-1-yl)quinoline-8-carboxamide] | 1000 to 10000 nM | 100 to 1000 nM | < 100 nM
34 | Cc1cn2cc(NC(=O)c3ccc(N4CCNCC4)c4nnccc34)cc(F)c2n1 [Compound 166, N-(8-fluoro-2-methylimidazo[1,2-a]pyridin-6-yl)-8-(piperazin-1-yl)cinnoline-5-carboxamide 2,2,2-trifluoroacetate] | > 10000 nM | > 10000 nM | > 10000 nM
35 | Cc1cn2cc(NC(=O)c3ccc(N4CCNCC4)c4ccnnc34)cc(C#N)c2n1 [Compound 167, N-{8-cyano-2-methylimidazo[1,2-a]pyridin-6-yl}-5-(piperazin-1-yl)cinnoline-8-carboxamide trifluoroacetic acid salt] | 1000 to 10000 nM | > 10000 nM | 100 to 1000 nM
36 | CCc1cc(NC(=O)c2ccc(N3CCNCC3)c3ccnnc23)nn2cc(C)nc12 [Compound 168, N-{8-ethyl-2-methylimidazo[1,2-b]pyridazin-6-yl}-5-(piperazin-1-yl)cinnoline-8-carboxamide trifluoroacetic acid salt] | > 10000 nM | > 10000 nM | 1000 to 10000 nM
